In experiment [1] the target is T1, HCV RNA-dependent RNA polymerase (NS5B protein) (Hepatitis C virus genotype 1b, UniProt P26663).
T1 construct: The cDNA encoding the entire NS5B protein of HCV-Bk strain, genotype 1b; added initiator Met (ATG introduced before the NS5B coding region) (N); made in house; host or cells: Sf9 insect cells, recombinant baculovirus BacNS5B (pBlueBacII)
Kind of experiment: In vitro HCV RNA-dependent RNA polymerase assay, triphosphate form of guanosine analogues (polyC/oligoG or heteropolymeric RNA template, [32P]-GTP incorporation). To be noted: purified recombinant NS5B; for inhibition at 50 µM: @50 μM compound. It is filed as biochemical, HCV-Bk strain. The protocol:
(§1) Compounds were evaluated using an in vitro polymerase assay containing purified recombinant HCV RNA-dependent RNA polymerase (NS5B protein). HCV NS5B was expressed in insect cells using a recombinant baculovirus as vector. The experimental procedures used for the cloning, expression and purification of the HCV NS5B protein are described bellow. Follows, are details of the RNA-dependent RNA polymerase assays used to test the compounds.
(§2) The cDNA encoding the entire NS5B protein of HCV-Bk strain, genotype 1b, was amplified by PCR using a plasmid containing a cDNA version of the full-length HCV genome as template. The oligonucleotides used to amplify this HCV region were designed to introduce a NheI site followed by an ATG at the 5′ end of the NS5B coding region as well as a BamHI site at the 3′end immediately downstream of the translation stop codon. The amplified sequence, of 1.8 kb, was digested with NheI and BamHI and ligated to a predigested pBlueBacII plasmid (Invitrogen). The resulting recombinant plasmid was designated pBac/NS5B. Sf9 cells were co-transfected with 3 μg of pBac/NS5B, together with 1 μg of linearized baculovirus DNA (Invitrogen), as described in the manufacturer's protocol. Following two rounds of plaque purification, an NS5B-recombinant baculovirus, BacNS5B, was isolated. The presence of the recombinant NS5B protein was determined by western blot analysis (Harlow and Lane, 1988) of BacNS5B-infected Sf9 cells, using a HCV NS5B specific rabbit polyclonal antiserum (anti-NS5B). Infections of Sf9 cells with this plaque purified virus were performed in one-liter spinner flasks at a cell density of 1.2×10^6 cells/ml and a multiplicity of infection of 5.
(§3) Sf9 cells were infected as described above. Sixty hours post-infection, cells were harvested then washed twice with phosphate buffer saline (PBS). Total proteins were solubilized as described in Lohmann et al. (1997) with some modifications. In brief, proteins were extracted in three steps, S1, S2, S3, using lysis buffers (LB) I, LB II and LB III (Lohmann et al, 1997). The composition of LBII was modified to contain 0.1% triton X-100 and 150 mM NaCl to reduce the amount of solubilized NS5B protein at this step. In addition, sonication of cell extracts was avoided throughout the protocol to preserve the integrity of the protein structure.
Soluble NS5B protein in the S3 fraction was diluted to lower the NaCl concentration to 300 mM, then it incubated batchwise with DEAE sepharose beads (Amersham-Pharmacia) for 2 hrs at 4° C., as described by Behrens et al. (1996). Unbound material was cleared by centrifugation for 15 min at 4° C., at 25000 rpm using a SW41 rotor (Beckman). […] Eluted fractions were analyzed by SDS-PAGE and western blotting. […]

In experiment [2] the target is T1, HCV RNA-dependent RNA polymerase (NS5B protein). Kind of experiment: In vitro HCV RNA-dependent RNA polymerase assay, triphosphate form of cytosine analogues (polyrI/oligodC or heteropolymeric RNA template, [32P]-CTP incorporation). It is filed as biochemical, HCV-Bk strain. To be noted: purified recombinant NS5B; for inhibition at 50 µM: @50 μM compound; for inhibition at 100 µM: @100 μM compound. The protocol:
as §1, §2, §3
Soluble NS5B protein in the S3 fraction was diluted to lower the NaCl concentration to 300 mM, then it incubated batchwise with DEAE sepharose beads (Amersham-Pharmacia) for 2 hrs at 4° C., as described by Behrens et al. (1996). Unbound material was cleared by centrifugation for 15 min at 4° C., at 25000 rpm using a SW41 rotor (Beckman). The supernatant was further diluted to lower the NaCl concentration to 200 mM and subsequently loaded, with a flow rate of 1 ml/min, on a 5 ml HiTrap® heparin column (Amersham-Pharmacia) connected to an FPLC® system (Amersham-Pharmacia). Bound proteins were eluted in 1 ml fractions, using a continuous NaCl gradient of 0.2 to 1 M, over a 25 ml volume. NS5B-containing fractions were identified by sodium dodecyl sulfate polyacrylamide gel electrophoresis (SDS-PAGE), followed by western blotting using the anti-NS5B antiserum at a dilution of 1:2000. Positive fractions were pooled and the elution buffer was exchanged against a 50 mM NaPO4 pH 7.0, 20% glycerol, 0.5% triton X-100 and 10 mM DTT, using a PD-10 column (Amersham-Pharmacia). The sample was then loaded onto a 1 ml HiTrap® SP column (Amersham-Pharmacia), with a flow rate of 0.1 ml/min. Bound proteins were eluted using a continuous 0 to 1 M NaCl gradient over a 15 ml volume. Eluted fractions were analyzed by SDS-PAGE and western blotting. Alternatively, proteins were visualized, following SDS-PAGE, by silver staining using the Silver Stain Plus kit (BioRad) as described by the manufacturer.
RdRp assays were conducted using either homopolymeric template/primers or in vitro transcribed RNA templates. […]

T1 sequence (P26663 2420-3010): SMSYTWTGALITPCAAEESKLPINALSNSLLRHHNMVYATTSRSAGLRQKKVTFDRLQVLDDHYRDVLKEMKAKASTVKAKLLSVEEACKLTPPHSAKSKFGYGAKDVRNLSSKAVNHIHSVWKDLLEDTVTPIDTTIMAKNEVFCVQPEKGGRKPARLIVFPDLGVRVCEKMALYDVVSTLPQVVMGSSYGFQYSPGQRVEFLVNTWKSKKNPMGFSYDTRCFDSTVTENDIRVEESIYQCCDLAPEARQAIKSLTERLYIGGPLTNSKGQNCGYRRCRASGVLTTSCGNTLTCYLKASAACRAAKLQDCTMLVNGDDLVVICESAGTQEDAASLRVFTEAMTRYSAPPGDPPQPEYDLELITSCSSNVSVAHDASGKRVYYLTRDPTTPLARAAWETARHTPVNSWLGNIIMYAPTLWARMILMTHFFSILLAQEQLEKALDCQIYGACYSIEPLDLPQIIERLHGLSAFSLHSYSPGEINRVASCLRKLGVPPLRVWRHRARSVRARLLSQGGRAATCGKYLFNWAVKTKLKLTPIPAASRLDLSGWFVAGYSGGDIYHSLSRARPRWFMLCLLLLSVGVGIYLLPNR

For orientation: inhibition means the share of the control response that was lost under treatment. Turning to `Nc1nc(NC2CC2)c2ncn([C@H]3CO[C@@H](COP(=O)(O)OP(=O)(O)OP(=O)(O)O)O3)c2n1` [9(-)-triphosphate, (−)-triphosphate-cis-2-hydroxymethyl-4-(2′-amino-6′-cyclopropylamino-purine-9′-yl)-1,3-dioxolane], the inhibition at 100 µM in experiment [1] (@100 μM compound) came to 44%.

Consider `Cc1cn([C@H]2CO[C@@H](COP(=O)(O)OP(=O)(O)OP(=O)(O)O)O2)c(=O)nc1N` [COMPOUND#25(+), (+)-triphosphate-cis-2-hydroxymethyl-4-(5′-methylcytosin-1′-yl)-1,3-dioxolane], for which, in experiment [2], the inhibition at 50 µM is 9%.

One may read the IC50 as the concentration that inhibits the measured activity by half. Regarding `Nc1ccn([C@H]2CO[C@@H](COP(=O)(O)OP(=O)(O)OP(=O)(O)O)O2)c(=O)n1` (single isomer, unassigned) [COMPOUND#22(+), (+)-triphosphate-cis-2-hydroxymethyl-4-(cytosin-1′-yl)-1,3-dioxolane], in experiment [2], the inhibition at 50 µM was 85% and the IC50 amounted to 7.7 µM. In the case of `Nc1ncn([C@H]2CO[C@@H](COP(=O)(O)OP(=O)(O)OP(=O)(O)O)O2)c(=O)n1` [COMPOUND#24(+), (+)-triphosphate-cis-2-hydroxymethyl-4-(5′-azacytosin-1′-yl)-1,3-dioxolane], the inhibition at 50 µM in experiment [2] amounted to 12%. As for `Nc1ccn([C@@H]2CO[C@H](COP(=O)(O)OP(=O)(O)OP(=O)(O)O)O2)c(=O)n1` [COMPOUND#22(−), (−)-triphosphate-cis-2-hydroxymethyl-4-(cytosin-1′-yl)-1,3-dioxolane], in experiment [2], the inhibition at 100 µM stood at 15%. On to `Nc1nc2c(ncn2[C@H]2CO[C@@H](COP(=O)(O)OP(=O)(O)OP(=O)(O)O)O2)c(=O)[nH]1` (single isomer, unassigned) [13(-) triphosphate, (−)-triphosphate-cis-2-hydroxymethyl-4-(guanin-9′-yl)-1,3-dioxolane], for which, in experiment [1], the inhibition at 50 µM was 82% and the IC50 was found to be 10 µM. Turning to `Nc1nc(=O)n([C@@H]2CO[C@H](COP(=O)(O)OP(=O)(O)OP(=O)(O)O)O2)cc1F` (single isomer, unassigned) [COMPOUND#23(−), (−)-triphosphate-cis-2-hydroxymethyl-4-(5′-fluorocytosin-1′-yl)-1,3-dioxolane], in experiment [2], the inhibition at 100 µM turned out to be 81% and the IC50 turned out to be 16 µM. As to `Cc1cn([C@H]2CO[C@@H](COP(=O)(O)OP(=O)(O)OP(=O)(O)O)O2)c(=O)[nH]c1=O` [COMPOUND#26(+), (+)-triphosphate-cis-2-hydroxymethyl-4-(N-1′-thiminyl)-1,3-dioxolane], the inhibition at 100 µM in experiment [2] stood at 47%. For the compound `Nc1ncnc2c1ncn2[C@H]1CO[C@@H](COP(=O)(O)OP(=O)(O)OP(=O)(O)O)O1` [14(-)-triphosphate, (−)-triphosphate-cis-2-hydroxymethyl-4-(adenin-9′-yl)-1,3-dioxolane], the inhibition at 50 µM in experiment [1] is 6%. As for `Nc1nc(=O)n([C@H]2CO[C@@H](COP(=O)(O)OP(=O)(O)OP(=O)(O)O)O2)cc1F` [COMPOUND#23(+), (+)-triphosphate-cis-2-hydroxymethyl-4-(5′-fluorocytosin-1′-yl)-1,3-dioxolane], in experiment [2], the inhibition at 100 µM is 57%. In the case of `Nc1ncn([C@@H]2CO[C@H](COP(=O)(O)OP(=O)(O)OP(=O)(O)O)O2)c(=O)n1` [COMPOUND#24(−), (−)-triphosphate-cis-2-hydroxymethyl-4-(5′-azacytosin-1′-yl)-1,3-dioxolane], in experiment [2], the inhibition at 100 µM turned out to be 8%.

The record behind these values is US6566365B1, “Method for the treatment of Flaviviridea viral infection using nucleoside analogues” (BioChem Pharma Inc., priority 1999, dated 2003).
